In patent publication US20110039721A1, “METHOD FOR PREDICTION ABOUT CARCINOGENICITY OF SUBSTANCE IN RODENT” (Chemicals Evaluation and Research Institute, priority 2007, published 2011):
Like-named read-outs stand apart in the source and are kept apart here.

Legend:
[1] = tested on: liver; settings: cited from earlier work
[2] = tested on: mRNA expressed from the genes (A) to (D) in rat liver; test: Behavior of genes (mRNA expression level, oligo-DNA microarray) in rat liver after 28-day oral administration; assay type: in vivo; settings: mRNA vs vehicle control group; for Behavior of gene caused by administration of chemical substance, Gene No. 4846 / Behavior of gene caused by administration of chemical substance, Gene No. 2026 / Behavior of gene caused by administration of chemical substance, Gene No. 4218 / Behavior of gene caused by administration of chemical substance, Gene No. 6182 / Behavior of gene caused by administration of chemical substance, Gene No. 5600: gene group (A); for Behavior of gene caused by administration of chemical substance, Gene No. 4846: Unigene No. Rn.144554; for Behavior of gene caused by administration of chemical substance, Gene No. 2026 / Behavior of gene caused by administration of chemical substance, Gene No. 4218: Unigene No. Rn.167075; for Behavior of gene caused by administration of chemical substance, Gene No. 6182: Unigene No. Rn.5834; for Behavior of gene caused by administration of chemical substance, Gene No. 5600: Unigene No. Rn.9836; for Behavior of gene caused by administration of chemical substance, Gene No. 1494 / Behavior of gene caused by administration of chemical substance, Gene No. 2045 / Behavior of gene caused by administration of chemical substance, Gene No. 2203: gene group (B); for Behavior of gene caused by administration of chemical substance, Gene No. 1494: Unigene No. Rn.1430; for Behavior of gene caused by administration of chemical substance, Gene No. 2045: Unigene No. Rn.19329; for Behavior of gene caused by administration of chemical substance, Gene No. 2203: Unigene No. Rn.21240; for Behavior of gene caused by administration of chemical substance, Gene No. 533 / Behavior of gene caused by administration of chemical substance, Gene No. 725 / Behavior of gene caused by administration of chemical substance, Gene No. 1163 / Behavior of gene caused by administration of chemical substance, Gene No. 4973 / Behavior of gene caused by administration of chemical substance, Gene No. 4095 / Behavior of gene caused by administration of chemical substance, Gene No. 1334 / Behavior of gene caused by administration of chemical substance, Gene No. 6620 / Behavior of gene caused by administration of chemical substance, Gene No. 6303 / Behavior of gene caused by administration of chemical substance, Gene No. 5878 / Behavior of gene caused by administration of chemical substance, Gene No. 1131 / Behavior of gene caused by administration of chemical substance, Gene No. 1562 / Behavior of gene caused by administration of chemical substance, Gene No. 1741 / Behavior of gene caused by administration of chemical substance, Gene No. 893 / Behavior of gene caused by administration of chemical substance, Gene No. 6026 / Behavior of gene caused by administration of chemical substance, Gene No. 154 / Behavior of gene caused by administration of chemical substance, Gene No. 1993 / Behavior of gene caused by administration of chemical substance, Gene No. 813 / Behavior of gene caused by administration of chemical substance, Gene No. 2494 / Behavior of gene caused by administration of chemical substance, Gene No. 2546 / Behavior of gene caused by administration of chemical substance, Gene No. 3776 / Behavior of gene caused by administration of chemical substance, Gene No. 3929 / Behavior of gene caused by administration of chemical substance, Gene No. 1119 / Behavior of gene caused by administration of chemical substance, Gene No. 6742 / Behavior of gene caused by administration of chemical substance, Gene No. 5634: gene group (C); for Behavior of gene caused by administration of chemical substance, Gene No. 533: Unigene No. Rn.106184; for Behavior of gene caused by administration of chemical substance, Gene No. 725: Unigene No. Rn.108075; for Behavior of gene caused by administration of chemical substance, Gene No. 1163: Unigene No. Rn.11766; for Behavior of gene caused by administration of chemical substance, Gene No. 4973: Unigene No. Rn.118529; for Behavior of gene caused by administration of chemical substance, Gene No. 4095: Unigene No. Rn.119024; for Behavior of gene caused by administration of chemical substance, Gene No. 1334 / Behavior of gene caused by administration of chemical substance, Gene No. 6620: Unigene No. Rn.120914; for Behavior of gene caused by administration of chemical substance, Gene No. 6303: Unigene No. Rn.123063; for Behavior of gene caused by administration of chemical substance, Gene No. 5878: Unigene No. Rn.143213; for Behavior of gene caused by administration of chemical substance, Gene No. 1131: Unigene No. Rn.144946; for Behavior of gene caused by administration of chemical substance, Gene No. 1562: Unigene No. Rn.14744; for Behavior of gene caused by administration of chemical substance, Gene No. 1741: Unigene No. Rn.1647; for Behavior of gene caused by administration of chemical substance, Gene No. 893: Unigene No. Rn.164817; for Behavior of gene caused by administration of chemical substance, Gene No. 6026: Unigene No. Rn.167685; for Behavior of gene caused by administration of chemical substance, Gene No. 154: Unigene No. Rn.185941; for Behavior of gene caused by administration of chemical substance, Gene No. 1993: Unigene No. Rn.18728; for Behavior of gene caused by administration of chemical substance, Gene No. 813: Unigene No. Rn.201760; for Behavior of gene caused by administration of chemical substance, Gene No. 2494: Unigene No. Rn.23969; for Behavior of gene caused by administration of chemical substance, Gene No. 2546: Unigene No. Rn.24561; for Behavior of gene caused by administration of chemical substance, Gene No. 3776: Unigene No. Rn.43232; for Behavior of gene caused by administration of chemical substance, Gene No. 3929: Unigene No. Rn.4620; for Behavior of gene caused by administration of chemical substance, Gene No. 1119: Unigene No. Rn.9757; for Behavior of gene caused by administration of chemical substance, Gene No. 6742: Unigene No. Rn.9779; for Behavior of gene caused by administration of chemical substance, Gene No. 5634: Unigene No. Rn.9862; for Behavior of gene caused by administration of chemical substance, Gene No. 5726: gene group (D), Unigene No. Rn.9939
Procedure, shortened: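 Groups of four male F344 SPF rats aged 5 weeks are gavaged once a day for 28 days with test chemical in solvent or with solvent alone at equal volume. Total RNA comes from liver taken on day 28. Fold change of 1.5 or 1/1.5 versus control, directionally consistent, defines significance.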

[3] = tested on: rodent; settings: cited from earlier work
[4] = classification of the substance (M+/M−); cited from earlier work
[5] = classification of the substance (Cr+/Cr−)
[6] = classification of the substance (C+/C−)

SMILES | Behavior of gene caused by administration of chemical substance, Gene No. 4846 [2] | Behavior of gene caused by administration of chemical substance, Gene No. 2026 [2] | Behavior of gene caused by administration of chemical substance, Gene No. 4218 [2] | Behavior of gene caused by administration of chemical substance, Gene No. 6182 [2] | Behavior of gene caused by administration of chemical substance, Gene No. 5600 [2] | Behavior of gene caused by administration of chemical substance, Gene No. 1494 [2] | Behavior of gene caused by administration of chemical substance, Gene No. 2045 [2] | Behavior of gene caused by administration of chemical substance, Gene No. 2203 [2] | Behavior of gene caused by administration of chemical substance, Gene No. 533 [2] | Behavior of gene caused by administration of chemical substance, Gene No. 725 [2] | Behavior of gene caused by administration of chemical substance, Gene No. 1163 [2] | Behavior of gene caused by administration of chemical substance, Gene No. 4973 [2] | Behavior of gene caused by administration of chemical substance, Gene No. 4095 [2] | Behavior of gene caused by administration of chemical substance, Gene No. 1334 [2] | Behavior of gene caused by administration of chemical substance, Gene No. 6620 [2] | Behavior of gene caused by administration of chemical substance, Gene No. 6303 [2] | Behavior of gene caused by administration of chemical substance, Gene No. 5878 [2] | Behavior of gene caused by administration of chemical substance, Gene No. 1131 [2] | Behavior of gene caused by administration of chemical substance, Gene No. 1562 [2] | Behavior of gene caused by administration of chemical substance, Gene No. 1741 [2] | also measured
Cn1c(N)nc2ncc(-c3ccccc3)cc21 [TS045, 2-amino-1-methyl-6-phenylimidazo[4,5-b]-pyridine] | − | − | − | − | − | − | + | + | − | − | − | − | − | − | − | − | − | − | − | − | Liver carcinogenicity [1, 5]: Cr−; Behavior of gene caused by administration of chemical substance, Gene No. 893 [2]: −; Behavior of gene caused by administration of chemical substance, Gene No. 6026 [2]: −; Behavior of gene caused by administration of chemical substance, Gene No. 154 [2]: −; Behavior of gene caused by administration of chemical substance, Gene No. 1993 [2]: −; Behavior of gene caused by administration of chemical substance, Gene No. 813 [2]: −; Behavior of gene caused by administration of chemical substance, Gene No. 2494 [2]: +; Behavior of gene caused by administration of chemical substance, Gene No. 2546 [2]: −; Behavior of gene caused by administration of chemical substance, Gene No. 3776 [2]: −; Behavior of gene caused by administration of chemical substance, Gene No. 3929 [2]: −; Behavior of gene caused by administration of chemical substance, Gene No. 1119 [2]: −; Behavior of gene caused by administration of chemical substance, Gene No. 6742 [2]: −; Behavior of gene caused by administration of chemical substance, Gene No. 5634 [2]: −; Behavior of gene caused by administration of chemical substance, Gene No. 5726 [2]: +; Carcinogenicity [3, 6]: C+; Mutagenicity by Ames test [4]: M+
Cc1c2ccccc2c(C)c2c1ccc1ccccc12 [TS047, 7,12-Dimethylbenz [a]anthracene] | − | − | − | − | − | − | − | − | − | + | + | − | − | − | − | − | − | − | − | − | Liver carcinogenicity ([1]; in vivo): Cr−; Behavior of gene caused by administration of chemical substance, Gene No. 893 [2]: −; Behavior of gene caused by administration of chemical substance, Gene No. 6026 [2]: −; Behavior of gene caused by administration of chemical substance, Gene No. 154 [2]: −; Behavior of gene caused by administration of chemical substance, Gene No. 1993 [2]: −; Behavior of gene caused by administration of chemical substance, Gene No. 813 [2]: −; Behavior of gene caused by administration of chemical substance, Gene No. 2494 [2]: −; Behavior of gene caused by administration of chemical substance, Gene No. 2546 [2]: −; Behavior of gene caused by administration of chemical substance, Gene No. 3776 [2]: −; Behavior of gene caused by administration of chemical substance, Gene No. 3929 [2]: −; Behavior of gene caused by administration of chemical substance, Gene No. 1119 [2]: −; Behavior of gene caused by administration of chemical substance, Gene No. 6742 [2]: −; Behavior of gene caused by administration of chemical substance, Gene No. 5634 [2]: −; Behavior of gene caused by administration of chemical substance, Gene No. 5726 [2]: +; Carcinogenicity ([3]; in vivo): C+; Mutagenicity by Ames test [4]: M+
Cc1ccc2cc3c(ccc4ccccc43)c3c2c1CC3 [TS048, 3-Methylcholanthrene] | − | + | − | − | − | − | − | − | − | − | − | − | − | − | − | − | − | − | − | − | Liver carcinogenicity [1, 5]: Cr−; Behavior of gene caused by administration of chemical substance, Gene No. 893 [2]: −; Behavior of gene caused by administration of chemical substance, Gene No. 6026 [2]: −; Behavior of gene caused by administration of chemical substance, Gene No. 154 [2]: −; Behavior of gene caused by administration of chemical substance, Gene No. 1993 [2]: −; Behavior of gene caused by administration of chemical substance, Gene No. 813 [2]: −; Behavior of gene caused by administration of chemical substance, Gene No. 2494 [2]: −; Behavior of gene caused by administration of chemical substance, Gene No. 2546 [2]: −; Behavior of gene caused by administration of chemical substance, Gene No. 3776 [2]: −; Behavior of gene caused by administration of chemical substance, Gene No. 3929 [2]: −; Behavior of gene caused by administration of chemical substance, Gene No. 1119 [2]: −; Behavior of gene caused by administration of chemical substance, Gene No. 6742 [2]: −; Behavior of gene caused by administration of chemical substance, Gene No. 5634 [2]: +; Behavior of gene caused by administration of chemical substance, Gene No. 5726 [2]: +; Carcinogenicity [3, 6]: C+; Mutagenicity by Ames test [4]: M+
